From a compilation of properties of binary mixtures (doi:10.1021/je200600p)

Experiment: xn = mol fraction of the nth substance listed
Conditions: 101 kPa

CC[n+]1ccn(C)c1.COP(=O)([O-])OC + CO
viscosity (293.15 K, x2 = 0.198): 197.6 mPa·s
viscosity (293.15 K, x2 = 0.399): 77.9 mPa·s
viscosity (293.15 K, x2 = 0.598): 24.32 mPa·s
viscosity (293.15 K, x2 = 0.799): 5.308 mPa·s
viscosity (298.15 K, x2 = 0.198): 147.8 mPa·s
viscosity (298.15 K, x2 = 0.399): 61.74 mPa·s
viscosity (298.15 K, x2 = 0.799): 4.769 mPa·s
viscosity (303.15 K, x2 = 0.198): 112.7 mPa·s
viscosity (303.15 K, x2 = 0.399): 49.69 mPa·s
viscosity (303.15 K, x2 = 0.598): 17.64 mPa·s
viscosity (303.15 K, x2 = 0.799): 4.309 mPa·s
viscosity (308.15 K, x2 = 0.198): 88 mPa·s
viscosity (308.15 K, x2 = 0.399): 40.72 mPa·s
viscosity (308.15 K, x2 = 0.598): 15.26 mPa·s
viscosity (308.15 K, x2 = 0.799): 3.911 mPa·s
viscosity (313.15 K, x2 = 0.198): 70.2 mPa·s
viscosity (313.15 K, x2 = 0.399): 33.84 mPa·s
viscosity (313.15 K, x2 = 0.598): 13.28 mPa·s
viscosity (313.15 K, x2 = 0.799): 3.566 mPa·s
viscosity (318.15 K, x2 = 0.198): 56.83 mPa·s
viscosity (318.15 K, x2 = 0.399): 28.41 mPa·s
viscosity (318.15 K, x2 = 0.598): 11.67 mPa·s
viscosity (323.15 K, x2 = 0.198): 46.73 mPa·s
viscosity (323.15 K, x2 = 0.399): 24.24 mPa·s
viscosity (323.15 K, x2 = 0.598): 10.3 mPa·s
viscosity (323.15 K, x2 = 0.799): 2.998 mPa·s
viscosity (328.15 K, x2 = 0.198): 39.02 mPa·s
viscosity (328.15 K, x2 = 0.598): 9.132 mPa·s
viscosity (328.15 K, x2 = 0.799): 2.763 mPa·s
viscosity (333.15 K, x2 = 0.198): 32.96 mPa·s
viscosity (333.15 K, x2 = 0.598): 8.188 mPa·s
viscosity (333.15 K, x2 = 0.799): 2.555 mPa·s

CCCC[n+]1ccn(C)c1.COP(=O)([O-])OC + O
viscosity (293.15 K, x2 = 0.201): 594 mPa·s
viscosity (293.15 K, x2 = 0.398): 356 mPa·s
viscosity (293.15 K, x2 = 0.601): 148.3 mPa·s
viscosity (293.15 K, x2 = 0.799): 39.94 mPa·s
viscosity (298.15 K, x2 = 0.201): 410 mPa·s
viscosity (298.15 K, x2 = 0.601): 108.5 mPa·s
viscosity (298.15 K, x2 = 0.799): 30.68 mPa·s
viscosity (303.15 K, x2 = 0.398): 181.6 mPa·s
viscosity (303.15 K, x2 = 0.799): 24.17 mPa·s
viscosity (308.15 K, x2 = 0.201): 212 mPa·s
viscosity (308.15 K, x2 = 0.398): 134.7 mPa·s
viscosity (308.15 K, x2 = 0.601): 62.54 mPa·s
viscosity (308.15 K, x2 = 0.799): 19.42 mPa·s
viscosity (313.15 K, x2 = 0.201): 157.5 mPa·s
viscosity (313.15 K, x2 = 0.398): 102 mPa·s
viscosity (313.15 K, x2 = 0.601): 48.93 mPa·s
viscosity (318.15 K, x2 = 0.201): 119.7 mPa·s
viscosity (318.15 K, x2 = 0.601): 39.05 mPa·s
viscosity (318.15 K, x2 = 0.799): 13.14 mPa·s
viscosity (323.15 K, x2 = 0.201): 92.7 mPa·s
viscosity (323.15 K, x2 = 0.398): 62.07 mPa·s
viscosity (323.15 K, x2 = 0.601): 31.67 mPa·s
viscosity (323.15 K, x2 = 0.799): 11.05 mPa·s
viscosity (328.15 K, x2 = 0.201): 73.1 mPa·s
viscosity (328.15 K, x2 = 0.601): 26.05 mPa·s
viscosity (328.15 K, x2 = 0.799): 9.37 mPa·s
viscosity (333.15 K, x2 = 0.201): 58.55 mPa·s
viscosity (333.15 K, x2 = 0.398): 40.4 mPa·s
viscosity (333.15 K, x2 = 0.601): 21.69 mPa·s
viscosity (333.15 K, x2 = 0.799): 8.037 mPa·s

CC[n+]1ccn(C)c1.COP(=O)([O-])OC + O
viscosity (293.15 K, x2 = 0.399): 194.9 mPa·s
viscosity (293.15 K, x2 = 0.6): 98.6 mPa·s
viscosity (293.15 K, x2 = 0.799): 32.35 mPa·s
viscosity (298.15 K, x2 = 0.399): 143.4 mPa·s
viscosity (298.15 K, x2 = 0.6): 74.5 mPa·s
viscosity (298.15 K, x2 = 0.799): 25.47 mPa·s
viscosity (303.15 K, x2 = 0.399): 108.1 mPa·s
viscosity (303.15 K, x2 = 0.6): 57.7 mPa·s
viscosity (303.15 K, x2 = 0.799): 20.44 mPa·s
viscosity (308.15 K, x2 = 0.198): 119.7 mPa·s
viscosity (308.15 K, x2 = 0.399): 83.5 mPa·s
viscosity (308.15 K, x2 = 0.6): 45.45 mPa·s
viscosity (308.15 K, x2 = 0.799): 16.68 mPa·s
viscosity (313.15 K, x2 = 0.198): 93 mPa·s
viscosity (313.15 K, x2 = 0.399): 65.74 mPa·s
viscosity (313.15 K, x2 = 0.6): 36.43 mPa·s
viscosity (313.15 K, x2 = 0.799): 13.81 mPa·s
viscosity (318.15 K, x2 = 0.6): 29.68 mPa·s
viscosity (323.15 K, x2 = 0.198): 59.37 mPa·s
viscosity (323.15 K, x2 = 0.399): 42.99 mPa·s
viscosity (323.15 K, x2 = 0.6): 24.55 mPa·s
viscosity (323.15 K, x2 = 0.799): 9.81 mPa·s
viscosity (328.15 K, x2 = 0.198): 48.61 mPa·s
viscosity (328.15 K, x2 = 0.6): 20.58 mPa·s
viscosity (328.15 K, x2 = 0.799): 8.405 mPa·s
viscosity (333.15 K, x2 = 0.399): 29.81 mPa·s
viscosity (333.15 K, x2 = 0.6): 17.46 mPa·s
viscosity (333.15 K, x2 = 0.799): 7.264 mPa·s
